Compound in one assay: O=[As]([O-])(O)O.[K+] [potassium arsenate]
As to the kind of experiment: thermal stability z-score vs DMSO; higher = more thermally stabilized by treatment. As to conditions: HeLa; arsenate concentration 1 mM. The procedure: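 Cellular thermal proteome profiling in HeLa cells treated with 1 mM arsenate for 1 h (DMSO pretreatment), heated to ten temperatures (37-66.3 °C). Soluble protein was quantified by TMT mass spectrometry relative to DMSO controls; the thermal stability score was transformed to a z-score; mean of n = 3 experiments.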

Compound in the next assay: NC(=O)CCCCC1CCSS1 [lipoamide]
Described as above. As to conditions: HeLa, lipoamide concentration 100 µM. The procedure:
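Cellular thermal proteome profiling in HeLa cells. Cells were treated with 100 µM lipoamide for 1 h, with or without 1 mM arsenate for a further 1 h, then heated to ten temperatures (37-66.3 °C), and soluble protein was quantified by TMT mass spectrometry relative to 0.1% DMSO controls. The thermal stability score (sum of log2 fold changes minus the abundance score) was transformed to a z-score; mean of n = 3 experiments.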

[1] abbreviates: arsenate co-treatment: 1 mM arsenate 1 h.
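Note: each temperature applied for 3 min, abundance score taken as mean log2 fold change at the two lowest temperatures, z-score obtained by mean subtraction and division by SD.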

Chain of UniProt Q8IWA4 (Q8IWA4 whole entry): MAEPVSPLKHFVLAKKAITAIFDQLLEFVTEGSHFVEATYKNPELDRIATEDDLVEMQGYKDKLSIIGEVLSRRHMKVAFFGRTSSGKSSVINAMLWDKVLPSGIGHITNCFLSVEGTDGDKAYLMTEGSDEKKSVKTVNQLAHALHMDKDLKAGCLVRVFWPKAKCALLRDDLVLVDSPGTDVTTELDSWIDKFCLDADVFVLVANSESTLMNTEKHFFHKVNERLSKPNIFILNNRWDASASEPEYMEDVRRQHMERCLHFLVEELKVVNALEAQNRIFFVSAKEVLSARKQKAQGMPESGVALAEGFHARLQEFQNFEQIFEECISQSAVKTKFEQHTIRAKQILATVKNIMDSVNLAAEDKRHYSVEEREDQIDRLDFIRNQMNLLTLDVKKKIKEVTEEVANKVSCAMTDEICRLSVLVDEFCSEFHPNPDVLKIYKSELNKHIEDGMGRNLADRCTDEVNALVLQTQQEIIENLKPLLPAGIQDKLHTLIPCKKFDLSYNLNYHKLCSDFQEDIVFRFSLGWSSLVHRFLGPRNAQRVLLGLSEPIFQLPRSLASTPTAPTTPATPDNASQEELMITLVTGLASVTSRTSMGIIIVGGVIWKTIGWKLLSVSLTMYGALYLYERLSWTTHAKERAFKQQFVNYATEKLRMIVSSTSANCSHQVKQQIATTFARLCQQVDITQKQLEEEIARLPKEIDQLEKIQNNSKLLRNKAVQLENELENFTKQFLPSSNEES
Chain of UniProt Q8IVH8 (Q8IVH8 whole entry): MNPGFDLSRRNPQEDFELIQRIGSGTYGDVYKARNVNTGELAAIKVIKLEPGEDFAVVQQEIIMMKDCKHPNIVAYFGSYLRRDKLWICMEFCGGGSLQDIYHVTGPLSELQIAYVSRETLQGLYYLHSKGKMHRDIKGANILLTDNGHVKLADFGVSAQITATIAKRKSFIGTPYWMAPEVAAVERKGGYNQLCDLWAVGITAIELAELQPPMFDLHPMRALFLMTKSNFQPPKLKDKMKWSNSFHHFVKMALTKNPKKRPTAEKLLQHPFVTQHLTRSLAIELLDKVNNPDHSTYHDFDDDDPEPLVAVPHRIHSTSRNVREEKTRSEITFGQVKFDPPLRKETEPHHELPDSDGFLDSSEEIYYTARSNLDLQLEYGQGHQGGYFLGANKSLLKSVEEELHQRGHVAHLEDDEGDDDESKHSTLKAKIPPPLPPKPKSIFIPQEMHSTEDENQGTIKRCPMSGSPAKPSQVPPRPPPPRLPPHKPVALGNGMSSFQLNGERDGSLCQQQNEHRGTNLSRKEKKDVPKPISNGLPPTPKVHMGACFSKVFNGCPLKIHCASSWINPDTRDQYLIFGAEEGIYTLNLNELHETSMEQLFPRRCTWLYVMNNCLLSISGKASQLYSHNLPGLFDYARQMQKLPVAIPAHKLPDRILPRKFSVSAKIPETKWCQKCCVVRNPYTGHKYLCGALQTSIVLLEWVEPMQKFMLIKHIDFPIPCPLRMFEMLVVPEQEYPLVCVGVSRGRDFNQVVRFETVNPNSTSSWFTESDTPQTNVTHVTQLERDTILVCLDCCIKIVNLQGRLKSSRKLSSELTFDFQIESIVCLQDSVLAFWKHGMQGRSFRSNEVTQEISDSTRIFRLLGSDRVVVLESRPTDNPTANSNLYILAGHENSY
Chain of UniProt P08397 (P08397 whole entry): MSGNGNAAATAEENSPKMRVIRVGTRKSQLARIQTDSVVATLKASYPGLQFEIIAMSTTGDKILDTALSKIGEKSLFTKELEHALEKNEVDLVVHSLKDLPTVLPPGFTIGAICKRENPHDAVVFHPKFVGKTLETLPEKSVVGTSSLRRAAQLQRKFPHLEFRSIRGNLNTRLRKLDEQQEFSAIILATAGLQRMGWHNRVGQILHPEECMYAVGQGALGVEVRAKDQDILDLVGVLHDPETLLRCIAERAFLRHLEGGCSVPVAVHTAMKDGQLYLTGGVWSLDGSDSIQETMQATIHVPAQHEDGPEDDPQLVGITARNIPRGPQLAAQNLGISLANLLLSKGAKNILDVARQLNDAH
Chain of UniProt Q86WW8 (Q86WW8 whole entry): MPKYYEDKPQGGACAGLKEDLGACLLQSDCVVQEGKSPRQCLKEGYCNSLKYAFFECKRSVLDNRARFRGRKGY
Chain of UniProt P50991 (P50991 whole entry): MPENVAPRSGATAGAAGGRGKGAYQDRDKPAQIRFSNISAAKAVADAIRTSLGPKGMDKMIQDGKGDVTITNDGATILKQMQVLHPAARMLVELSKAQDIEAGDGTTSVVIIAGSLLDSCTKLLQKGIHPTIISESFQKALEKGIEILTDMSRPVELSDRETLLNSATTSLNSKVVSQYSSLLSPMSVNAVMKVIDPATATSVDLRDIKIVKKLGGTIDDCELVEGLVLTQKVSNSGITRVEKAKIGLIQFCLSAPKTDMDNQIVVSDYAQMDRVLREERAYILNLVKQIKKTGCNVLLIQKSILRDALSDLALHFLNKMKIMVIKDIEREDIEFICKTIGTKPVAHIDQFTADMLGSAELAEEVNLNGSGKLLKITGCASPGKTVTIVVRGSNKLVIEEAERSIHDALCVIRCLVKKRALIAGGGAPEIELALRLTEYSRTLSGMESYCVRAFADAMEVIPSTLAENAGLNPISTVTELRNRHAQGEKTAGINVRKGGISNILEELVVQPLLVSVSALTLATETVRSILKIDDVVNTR
Chain of UniProt Q7L8L6 (Q7L8L6 whole entry): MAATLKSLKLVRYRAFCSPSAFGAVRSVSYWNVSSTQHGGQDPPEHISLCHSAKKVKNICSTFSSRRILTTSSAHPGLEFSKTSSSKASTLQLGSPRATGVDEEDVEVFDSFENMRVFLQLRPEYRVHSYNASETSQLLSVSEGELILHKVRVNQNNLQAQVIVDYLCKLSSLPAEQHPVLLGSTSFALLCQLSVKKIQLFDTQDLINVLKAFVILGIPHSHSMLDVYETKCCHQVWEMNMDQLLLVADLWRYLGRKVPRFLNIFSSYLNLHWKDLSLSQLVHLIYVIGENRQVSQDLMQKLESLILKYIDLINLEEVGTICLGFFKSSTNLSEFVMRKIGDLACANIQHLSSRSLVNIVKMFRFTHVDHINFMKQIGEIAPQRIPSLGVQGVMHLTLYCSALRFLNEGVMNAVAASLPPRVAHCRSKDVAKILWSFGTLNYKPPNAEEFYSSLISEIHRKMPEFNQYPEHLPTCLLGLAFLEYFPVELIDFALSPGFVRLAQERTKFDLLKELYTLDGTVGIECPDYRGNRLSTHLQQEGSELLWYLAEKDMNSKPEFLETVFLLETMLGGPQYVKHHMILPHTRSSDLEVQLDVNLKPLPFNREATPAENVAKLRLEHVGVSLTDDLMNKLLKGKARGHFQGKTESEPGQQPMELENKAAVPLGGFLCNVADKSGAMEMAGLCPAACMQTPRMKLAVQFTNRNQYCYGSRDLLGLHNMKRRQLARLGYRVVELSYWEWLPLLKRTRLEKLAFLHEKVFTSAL
Chain of UniProt P15260 (P15260 whole entry): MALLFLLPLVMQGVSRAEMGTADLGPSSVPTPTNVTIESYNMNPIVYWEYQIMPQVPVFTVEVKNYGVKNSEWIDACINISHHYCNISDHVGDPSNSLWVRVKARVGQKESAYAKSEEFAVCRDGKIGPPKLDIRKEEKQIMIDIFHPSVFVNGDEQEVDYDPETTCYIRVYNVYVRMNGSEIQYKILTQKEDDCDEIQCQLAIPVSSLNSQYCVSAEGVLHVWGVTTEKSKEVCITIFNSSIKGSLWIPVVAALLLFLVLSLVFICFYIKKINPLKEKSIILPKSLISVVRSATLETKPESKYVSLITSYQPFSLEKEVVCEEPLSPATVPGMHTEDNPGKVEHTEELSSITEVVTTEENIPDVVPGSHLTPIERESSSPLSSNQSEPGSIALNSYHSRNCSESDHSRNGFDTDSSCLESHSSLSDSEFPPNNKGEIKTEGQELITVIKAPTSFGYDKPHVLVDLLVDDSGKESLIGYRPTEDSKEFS
Chain of UniProt O00273 (O00273 whole entry): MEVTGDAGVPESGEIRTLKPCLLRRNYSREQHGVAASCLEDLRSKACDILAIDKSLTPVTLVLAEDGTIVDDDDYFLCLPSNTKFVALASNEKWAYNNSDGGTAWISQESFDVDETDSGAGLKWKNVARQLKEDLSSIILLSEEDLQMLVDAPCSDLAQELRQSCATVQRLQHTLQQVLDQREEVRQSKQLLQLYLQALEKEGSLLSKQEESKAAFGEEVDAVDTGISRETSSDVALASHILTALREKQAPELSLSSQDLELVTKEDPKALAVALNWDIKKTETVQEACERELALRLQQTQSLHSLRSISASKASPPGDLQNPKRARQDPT
Chain of UniProt Q16401 (Q16401 whole entry): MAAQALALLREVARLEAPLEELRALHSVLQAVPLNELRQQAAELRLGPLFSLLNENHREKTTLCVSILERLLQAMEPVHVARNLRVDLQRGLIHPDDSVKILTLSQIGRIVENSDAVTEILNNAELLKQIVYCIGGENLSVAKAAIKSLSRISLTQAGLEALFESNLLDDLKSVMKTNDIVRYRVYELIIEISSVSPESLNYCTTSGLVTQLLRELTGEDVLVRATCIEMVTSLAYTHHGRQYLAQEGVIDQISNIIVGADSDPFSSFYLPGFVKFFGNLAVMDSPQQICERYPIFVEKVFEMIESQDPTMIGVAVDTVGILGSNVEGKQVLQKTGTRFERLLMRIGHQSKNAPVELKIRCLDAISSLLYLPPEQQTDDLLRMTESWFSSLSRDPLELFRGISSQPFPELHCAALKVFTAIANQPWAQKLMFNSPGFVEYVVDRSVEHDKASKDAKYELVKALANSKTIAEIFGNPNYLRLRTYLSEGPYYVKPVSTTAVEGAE
Chain of UniProt P16949 (P16949 whole entry): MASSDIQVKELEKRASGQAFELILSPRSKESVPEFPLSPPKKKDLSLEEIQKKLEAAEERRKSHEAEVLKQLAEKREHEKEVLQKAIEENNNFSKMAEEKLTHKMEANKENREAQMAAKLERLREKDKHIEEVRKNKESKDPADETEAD
Chain of UniProt P05386 (P05386 whole entry): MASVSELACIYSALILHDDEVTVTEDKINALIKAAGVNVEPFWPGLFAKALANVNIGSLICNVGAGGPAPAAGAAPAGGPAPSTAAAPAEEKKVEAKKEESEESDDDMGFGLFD

As for UBE2T (UniProt Q9NPD8), the thermal stability z-score is -0.137 with potassium arsenate, 0.245 with lipoamide (setting [1]) and 0.447 in the assay with lipoamide (arsenate co-treatment: none).

KCNAB2 (UniProt Q13303): the thermal stability z-score with potassium arsenate turned out to be 0.237; with lipoamide (setting [1]) it was 0.221; in the assay with lipoamide (arsenate co-treatment: none) it was 0.281.

Consider STMN1 (UniProt P16949), for which the thermal stability z-score with potassium arsenate came to 0.78; in the assay with lipoamide (setting [1]), 1.14; in the assay with lipoamide (arsenate co-treatment: none), 1.18.

For the target PSMD5 (UniProt Q16401), the results for the thermal stability z-score in the assay with potassium arsenate, in the assay with lipoamide (setting [1]) and with lipoamide (arsenate co-treatment: none) were 0.282, 0.166 and 0.024, respectively.

On to VDAC1 (UniProt P21796), for which the values for the thermal stability z-score with potassium arsenate, in the assay with lipoamide (setting [1]) and with lipoamide (arsenate co-treatment: none) were 0.905, 0.311 and 0.385, respectively.

With MAP4K3 (UniProt Q8IVH8), the figures for the thermal stability z-score with potassium arsenate, with lipoamide (setting [1]) and with lipoamide (arsenate co-treatment: none) were 0.139, 0.23 and -0.0792, respectively.

On to MACROD1 (UniProt Q9BQ69), for which the thermal stability z-score in the assay with potassium arsenate was 1.33; in the assay with lipoamide (setting [1]), 1.61; with lipoamide (arsenate co-treatment: none), 0.262.

As to FAM73A (UniProt Q8NAN2), the figures for the thermal stability z-score in the assay with potassium arsenate, with lipoamide (setting [1]) and in the assay with lipoamide (arsenate co-treatment: none) were 0.164, -0.106 and 0.0979, respectively.

IFNGR1 (UniProt P15260): the figures for the thermal stability z-score with potassium arsenate, in the assay with lipoamide (setting [1]) and with lipoamide (arsenate co-treatment: none) were -1.27, -0.824 and -1.59, respectively.

In the case of FASTKD5 (UniProt Q7L8L6), the figures for the thermal stability z-score in the assay with potassium arsenate, with lipoamide (setting [1]) and in the assay with lipoamide (arsenate co-treatment: none) were 0.437, -1.07 and 0.633, respectively.

As to KATNAL1 (UniProt Q9BW62), the thermal stability z-score with potassium arsenate is -0.0764; in the assay with lipoamide (setting [1]), 0.798; with lipoamide (arsenate co-treatment: none), -0.886.

For ZNF148 (UniProt Q9UQR1), the results for the thermal stability z-score with potassium arsenate, in the assay with lipoamide (setting [1]) and in the assay with lipoamide (arsenate co-treatment: none) were 0.415, 0.37 and 0.389, respectively.

In the case of PGM3 (UniProt O95394), the figures for the thermal stability z-score in the assay with potassium arsenate, in the assay with lipoamide (setting [1]) and with lipoamide (arsenate co-treatment: none) were 0.188, 0.0643 and -0.0248, respectively.

Turning to CCT4 (UniProt P50991), the thermal stability z-score with potassium arsenate is -0.223; with lipoamide (setting [1]) it was -0.0959; in the assay with lipoamide (arsenate co-treatment: none) it was -0.205.

COA5 (UniProt Q86WW8): the thermal stability z-score was 0.0388 with potassium arsenate, -0.51 with lipoamide (setting [1]) and -0.761 with lipoamide (arsenate co-treatment: none).

Take SRP54 (UniProt P61011): the values for the thermal stability z-score in the assay with potassium arsenate, in the assay with lipoamide (setting [1]) and in the assay with lipoamide (arsenate co-treatment: none) were 0.715, -0.193 and 0.172, respectively.

For the target AGPS (UniProt O00116), the thermal stability z-score was -0.854 with potassium arsenate, -1.96 with lipoamide (setting [1]) and -1.23 with lipoamide (arsenate co-treatment: none).

As to DIP2A (UniProt Q14689), the thermal stability z-score was -0.205 in the assay with potassium arsenate, 0.82 in the assay with lipoamide (setting [1]) and -0.0406 with lipoamide (arsenate co-treatment: none).

For RPLP1 (UniProt P05386), the results for the thermal stability z-score with potassium arsenate, with lipoamide (setting [1]) and with lipoamide (arsenate co-treatment: none) were 0.00244, 1.44 and 0.753, respectively.

In the case of HMBS (UniProt P08397), the thermal stability z-score with potassium arsenate amounted to 0.0804; with lipoamide (setting [1]), 0.513; in the assay with lipoamide (arsenate co-treatment: none), 0.573.

S100A13 (UniProt Q99584): the thermal stability z-score amounted to 0.67 with potassium arsenate, 0.758 with lipoamide (setting [1]) and 1.06 with lipoamide (arsenate co-treatment: none).

TARBP1 (UniProt Q13395): the thermal stability z-score with potassium arsenate is 0.121; in the assay with lipoamide (setting [1]), -0.285; with lipoamide (arsenate co-treatment: none), -0.136.

As for DFFA (UniProt O00273), the values for the thermal stability z-score with potassium arsenate, in the assay with lipoamide (setting [1]) and with lipoamide (arsenate co-treatment: none) were 0.443, 0.376 and 0.555, respectively.

Turning to TM9SF2 (UniProt Q99805), the thermal stability z-score with potassium arsenate is 1.03; with lipoamide (setting [1]) it was -0.509; in the assay with lipoamide (arsenate co-treatment: none), -0.486.

As for MFN1 (UniProt Q8IWA4), the thermal stability z-score with potassium arsenate was 0.157; with lipoamide (setting [1]) it was -0.522; with lipoamide (arsenate co-treatment: none), -0.191.

Source of the values: the supplement of paper PMC12463676, “Small-molecule dissolution of stress granules by redox modulation benefits ALS models” (Nature Chemical Biology, 2025).
